Assay results: PubChem BioAssay (NCI)
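Tested at 5 concentrations; 48 h exposure; 96-well plates; endpoints linearly interpolated, else capped at highest concentration. The concentration for full growth arrest is given as TGI.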

Key:
Assay in all cases: growth of human tumour cells (NCI), 48 h
[1] = tested on: SR leukemia
[2] = tested on: OVCAR-3 ovarian
[3] = tested on: HCC-2998 colon
[4] = tested on: SF-539 CNS
[5] = tested on: TK-10 renal
[6] = tested on: NCI-H522 lung
[7] = tested on: RPMI-8226 leukemia
[8] = tested on: HOP-92 NSCLC
[9] = tested on: DU-145 prostate
[10] = tested on: EKVX NSCLC
[11] = tested on: SW-620 colon
[12] = tested on: CAKI-1 renal
[13] = tested on: M14 melanoma
[14] = tested on: MDA-N
[15] = tested on: UO-31 renal
[16] = tested on: T-47D breast
[17] = tested on: A549 NSCLC
[18] = tested on: NCI-H460 lung
[19] = tested on: K-562 leukemia
[20] = tested on: PC-3 prostate
[21] = tested on: MOLT-4 leukemia
[22] = tested on: SNB-19 CNS
[23] = tested on: HT29 colon
[24] = tested on: 786-0 renal
[25] = tested on: CCRF-CEM leukemia
[26] = tested on: NCI/ADR-RES ovarian
[27] = tested on: RXF 393 renal
[28] = tested on: SF-268 CNS
[29] = tested on: OVCAR-4 ovarian
[30] = tested on: SK-MEL-2 melanoma
[31] = tested on: LOX IMVI melanoma
[32] = tested on: HCT-116 colon
[33] = tested on: COLO 205 colon
[34] = tested on: SF-295 CNS
[35] = tested on: ACHN renal
[36] = tested on: BT-549 breast
[37] = tested on: U251 CNS
[38] = tested on: OVCAR-8 ovarian
[39] = tested on: MDA-MB-231 breast
[40] = tested on: MDA-MB-435
[41] = tested on: SN12C renal
[42] = tested on: KM12 colon
[43] = tested on: OVCAR-5 ovarian
[44] = tested on: HOP-62 NSCLC
[45] = tested on: MCF7 breast
[46] = tested on: A498 renal
[47] = tested on: NCI-H23 lung
[48] = tested on: HCT-15 colon
[49] = tested on: MALME-3M melanoma
[50] = tested on: SNB-75 CNS
[51] = tested on: SK-OV-3 ovarian
[52] = tested on: UACC-257 melanoma
[53] = tested on: IGROV1 ovarian
[54] = tested on: HS 578T breast
[55] = tested on: UACC-62 melanoma
[56] = tested on: NCI-H226 lung
[57] = tested on: SK-MEL-28 melanoma
[58] = tested on: SK-MEL-5 melanoma
[59] = tested on: HL-60(TB) leukemia

## CC(C)(C)C(=O)Nc1cccc(-c2ccc[nH]2)n1
[1]
  TGI: > 100 µM
[2]
  TGI: > 100 µM
[3]
  TGI: > 100 µM
[4]
  TGI: > 100 µM
[5]
  TGI: > 100 µM
[6]
  TGI: > 100 µM
[7]
  TGI: 25.5 µM
[8]
  TGI: > 100 µM
[9]
  TGI: > 100 µM
[10]
  TGI: > 100 µM
[11]
  TGI: > 100 µM
[12]
  TGI: > 100 µM
[13]
  TGI: > 100 µM
[14]
  TGI: > 100 µM
[15]
  TGI: > 100 µM
[16]
  TGI: > 100 µM
[17]
  TGI: > 100 µM
[18]
  TGI: > 100 µM
[19]
  TGI: > 100 µM
[20]
  TGI: > 100 µM
[21]
  TGI: > 100 µM
[22]
  TGI: > 100 µM
[23]
  TGI: > 100 µM
[24]
  TGI: > 100 µM
[25]
  TGI: > 100 µM
[26]
  TGI: > 100 µM
[27]
  TGI: > 100 µM
[28]
  TGI: > 100 µM
[29]
  TGI: > 100 µM
[30]
  TGI: > 100 µM
[31]
  TGI: > 100 µM
[32]
  TGI: > 100 µM
[33]
  TGI: > 100 µM
[34]
  TGI: > 100 µM
[35]
  TGI: > 100 µM
[36]
  TGI: > 100 µM
[37]
  TGI: > 100 µM
[38]
  TGI: > 100 µM
[39]
  TGI: > 100 µM
[40]
  TGI: > 100 µM
[41]
  TGI: > 100 µM
[42]
  TGI: > 100 µM
[43]
  TGI: > 100 µM
[44]
  TGI: > 100 µM
[45]
  TGI: > 100 µM
[46]
  TGI: > 100 µM
[47]
  TGI: > 100 µM
[48]
  TGI: > 100 µM
[49]
  TGI: > 100 µM
[50]
  TGI: > 100 µM
[51]
  TGI: > 100 µM
[52]
  TGI: > 100 µM
[53]
  TGI: > 100 µM
[54]
  TGI: 87.5 µM
[55]
  TGI: > 100 µM
[56]
  TGI: > 100 µM
[57]
  TGI: > 100 µM
[58]
  TGI: > 100 µM

## CCOC(=O)c1c(NC(=O)c2ccc(OC)cc2)sc2c1CCCC2
[1]
  TGI: > 100 µM
[2]
  TGI: > 100 µM
[4]
  TGI: > 100 µM
[5]
  TGI: > 100 µM
[7]
  TGI: > 100 µM
[9]
  TGI: > 100 µM
[10]
  TGI: > 100 µM
[11]
  TGI: > 100 µM
[12]
  TGI: > 100 µM
[13]
  TGI: > 100 µM
[14]
  TGI: > 100 µM
[15]
  TGI: > 100 µM
[16]
  TGI: > 100 µM
[17]
  TGI: > 100 µM
[18]
  TGI: > 100 µM
[19]
  TGI: > 100 µM
[20]
  TGI: > 100 µM
[21]
  TGI: > 100 µM
[22]
  TGI: > 100 µM
[23]
  TGI: > 100 µM
[24]
  TGI: > 100 µM
[25]
  TGI: > 100 µM
[26]
  TGI: > 100 µM
[59]
  TGI: > 100 µM
[27]
  TGI: > 100 µM
[28]
  TGI: > 100 µM
[30]
  TGI: > 100 µM
[32]
  TGI: > 100 µM
[33]
  TGI: > 100 µM
[34]
  TGI: > 100 µM
[35]
  TGI: > 100 µM
[36]
  TGI: > 100 µM
[37]
  TGI: > 100 µM
[38]
  TGI: > 100 µM
[39]
  TGI: > 100 µM
[40]
  TGI: > 100 µM
[41]
  TGI: > 100 µM
[42]
  TGI: > 100 µM
[43]
  TGI: > 100 µM
[44]
  TGI: > 100 µM
[45]
  TGI: > 100 µM
[46]
  TGI: > 100 µM
[47]
  TGI: > 100 µM
[52]
  TGI: > 100 µM
[53]
  TGI: > 100 µM
[54]
  TGI: > 100 µM
[55]
  TGI: > 100 µM
[56]
  TGI: > 100 µM
[57]
  TGI: > 100 µM
[58]
  TGI: > 100 µM
